Experimental data taken from US20110206673A1, “POLYPEPTIDES AND POLYNUCLEOTIDES FOR ARTEMIN AND RELATED LIGANDS, AND METHODS OF USE THEREOF” (priority 2007, published 2011).

How the values were obtained:
MCF-7 cells = assay: Soft agar growth assay (96-well, MTT readout); format: cell-based, human
Experimental: To perform soft agar colony formation assays, 50 μl of 0.5% agarose in serum containing medium was plated onto each well of 96-well flat-bottom microplates, as a base agar layer. Next, 5×10^3 cells in a 100 μl mixture of 0.35% agarose in serum containing medium were plated onto the base layer. Subsequently, 100 μl of the medium was added to prevent drying of the agarose gels. For antibody treatment, the antibodies at the indicated concentrations were added into the top agar layer and the culture medium to ensure the complete exposure of cells to antibodies. The plates were incubated at 37° C. in a humidified incubator. The top culture medium including the antibodies was changed every 3 days. After 10 days, 20 μl of 5 mg/ml MTT (Sigma Chemical Company, St Louis, Mo., USA) was added into each well and incubated at 37° C. for 4 hours followed by adding 100 μl of acidified lysis buffer (0.01% HCl in 10% SDS). The plate was incubated at 42° C. to ensure a homogenous mixture. The plate was shaken briefly and then read at 595 nm (test wavelength) and 690 nm (reference wavelength) using the Synergy™ 2 Multi-Mode Microplate Reader (BioTek instruments, Inc., Vermont, USA).

[1] = system: MCF7-ARTN and MCF7-Vec cells; assay: MTT assay of chemotherapy drug induced death; format: cell-based, human; conditions: 10% serum; both MCF7-ARTN and MCF7-Vec cells
Experimental: MTT (3-[4,5-dimethylthiazol-2-yl]-2,5-diphenyl tetrazolium bromide) assays were used measure cell proliferation. Cells were seeded into 96 well flat bottom tissue culture microplates in 100 μl RPMI-1640 culture medium containing 10% FBS at a concentration of 5×10^3 cells/well. On assay day, 10 μl of the MTT labelling reagent was added at a final concentration 0.5 mg/ml to each well and the cells were labelled for 5 h in the incubator. At the end of the incubation period, the media was removed and the converted dye was solubilised with 100 μl solubilising solution (0.01N HCl in 10% SDS in water). The plates were then sealed and placed at 37° C. overnight to completely solubilise the purple formazan crystals. The absorbance of the converted dye was measured using Spectra Max 250 multiplate reader at a wavelength of 570 nm with background subtraction at 650 nm. Each treatment was performed at least in triplicate.

[2] = system: MCF-7 breast cancer cells; conditions: cited from earlier work
[3] = system: MCF7-ARTN and MCF7-Vec cells; assay: Soft agar colony formation in the presence of Tamoxifen (six-well); format: cell-based, human; conditions: 1 μM and 5 μM
Experimental: For soft agar colony formation assay, cells were cultured in 6-well plates first covered with a layer of agar (0.5%). Cells were grown in RPMI 1640 media containing 10% FBS. The middle layer included 5×10^3 cells in 0.35% agar in RPMI 1640 media containing 10% FBS. Media was added as the top layer to prevent drying of the agarose gels. The plates were incubated at 37° C. in a humidified incubator for 14 days. After this, cells were stained with 0.5 ml of 0.005% crystal violet in distilled water for 1 h and distained for 2 h in water. Colonies were inspected and photographed.

## C[C@]12CC[C@@H]3c4ccc(O)cc4C[C@@H](CCCCCCCCC[S+]([O-])CCCC(F)(F)C(F)(F)F)[C@H]3[C@@H]1CC[C@@H]2O (stereo partly drawn) [Faslodex, Faslodex (ICI 182,780)]
MCF-7 cells; Faslodex (ICI 182,780) 100 nM alone
  soft agar growth compared with controls: 55.8%

## CC/C(=C(\c1ccccc1)c1ccc(OCCN(C)C)cc1)c1ccccc1 [Tamoxifen]
[1]
  cell death (MTT viability): caused cell death in a dose dependent manner
[2]; 0.1-1 μM
  effect at lower concentrations: induce a cell-cycle arrest
[2]; above 5 μM
  effect at pharmacological concentrations: induce apoptosis
[3]
  number of colonies formed in soft agar: reduced the number of colonies
MCF-7 cells; Tamoxifen 1 μM alone
  soft agar growth compared with controls: 40.4%
